In patent US20190030042A1, “Method for Treating Dementia with Lewy Bodies” (BrainX CORPORATION, priority 2017, published 2019):

Tested on: DLB rats
Test: Object recognition test in DLB rats
Format: in vivo, rat
Settings: group A3, 100 mg/kg/day IP for 27 days, test on 27th day, p<0.05
Method: Saline is also used to be administrated to the normal rats of group A1.
Recognition ability of the rats of groups A1-A3 is measured using the object recognition test (Ho et al., Behav Brain Res 268: 177-184, 2014). Specifically, on the 25th & 26th day, the rat “M” under the test is placed in an open box, shown as FIG. 2a, for 5 minutes. Three flavorless objects (objects O1, O2 & O3) with the same size, color, shape and material are respectively fixed at three corners of the open box.
On the 27th day, the rat “M” under the test is first placed in the open box shown as FIG. 2a, and the time spent exploring the object O1 (T01) and the total time spent exploring the objects O1, O2 & O3 (TO1+O2+O3) are recorded, respectively. The percentage of the exploration time spent on the object O1 is calculated as (TO1/TO1+O2+O3)*100%. After 5 minutes, a novel object O4 with different size, color, shape and material is used to replace the object O1 (shown in FIG. 2b), and the rat “M” under the test is placed in the open box. The time spent exploring the novel object O4 (TO4) and the total time spent exploring the objects O2 & O3 and the novel object O4 (TO2+O3+O4) are respectively recorded, and the percentage of the exploration time spent on the novel object O4 is calculated as (TO4/TO2+O3+O4)*100%.

CO/N=C(\C(=O)N[C@@H]1C(=O)N2C(C(=O)O)=C(CSc3nc(=O)c(=O)[nH]n3C)CS[C@H]12)c1csc(N)n1 [ceftriaxone]
recognition of the novel object O4 (percentage of time exploring object): can recognize the novel object O4
